Values of other authors in patent publication US11857556B2, “Topical compositions of dutasteride” (SHILPA MEDICARE LIMITED, priority 2021, dated 2024).

Solubility in ethanol, methanol and polyethylene glycol 400 (ethanol, methanol and polyethylene glycol 400): soluble
Solubility in water (water): insoluble
Structure (SMILES): C[C@]12C=CC(=O)N[C@@H]1CC[C@@H]1[C@@H]2CC[C@]2(C)[C@@H](C(=O)Nc3cc(C(F)(F)F)ccc3C(F)(F)F)CC[C@@H]12 [Dutasteride, (5α,17β)-N-{2,5-bis(trifluoromethyl)phenyl}-3-oxo-4-azaandrost-1-ene-17-carboxamide]
